Assay results from patent US4482553A, “Benzothienylglycyl cephalosporin derivatives” (priority 1983, dated 1984).
In brackets after ≈: the same amount, converted by molar mass. Where two headings read alike, the source gives them in different places.

Columns and labels:
Format in all cases: cell-based
[1] = test system: Staph. aureus; assay: standard in vitro agar dilution MIC (Table I), Staph. aureus; settings: Staphylococcus aureus
[2] = test system: Staph. epi; assay: standard in vitro agar dilution MIC (Table I), Staph. epi
[3] = test system: Strep. D; assay: standard in vitro agar dilution MIC (Table I), Strep. D
[4] = test system: H. influ.; assay: standard in vitro agar dilution MIC (Table I), H. influ.
Text: (§1) The antibacterial activity of several compounds of the invention has been determined in standard in vitro agar dilution assays against a variety of gram positive and gram negative microorganisms. The following Tables present typical minimum inhibitory concentrations (MIC's) in μg/ml for several compounds of the invention when evaluated against the indicated microorganisms. MIC's for several known compounds are also presented for comparison.

[5] = test system: E. coli; assay: standard in vitro agar dilution MIC (Table I), E. coli; settings: Escherichia coli
[6] = test system: Klebsiella; assay: standard in vitro agar dilution MIC (Table I), Klebsiella
[7] = test system: Strep. A; assay: standard in vitro agar dilution MIC (Table I), Strep. A; settings: Table I, agar dilution, strain C203; read-out: MIC
[8] = test system: Strep. PN; assay: standard in vitro agar dilution MIC (Table I), Strep. PN; settings: strain PARK, read-out: MIC
[9] = test system: Staph. epi; assay: Expanded Spectrum MIC (Table II), Staph. epi
Text: as §1

[10] = test system: Staph. aureus; assay: Expanded Spectrum MIC (Table II), Staph. aureus; settings: Staphylococcus aureus
Text: as §1

[11] = test system: H. influ.; assay: Expanded Spectrum MIC (Table II), H. influ.
Text: as §1

[12] = Table I, agar dilution, strain EPI1, read-out: MIC
[13] = Klebsiella, Table I, agar dilution, strain X26, read-out: MIC
[14] = Klebsiella, Table I, agar dilution, strain X68, read-out: MIC
[15] = Table I, agar dilution, strain 222, read-out: MIC

CC1(C)S[C@@H]2[C@H](NC(=O)[C@H](N)c3ccccc3)C(=O)N2[C@H]1C(=O)O [Ampicillin, reference compound]
MIC ([1]; strain S13E): 64 µg/mL (≈ 183 µM)
MIC [2, 12]: 8 µg/mL (≈ 22.9 µM)
MIC ([3]; strain 2041, read-out: MIC): 2 µg/mL (≈ 5.72 µM)
MIC ([3]; strain X66, read-out: MIC): 4 µg/mL (≈ 11.4 µM)
MIC ([4]; strain 76): 16 µg/mL (≈ 45.8 µM)
MIC ([4]; strain C.L.): 0.5 µg/mL (≈ 1.43 µM)
MIC ([5]; strain EC14): 4 µg/mL (≈ 11.4 µM)
MIC ([5]; strain N10): 8 µg/mL (≈ 22.9 µM)
MIC [6, 13]: 16 µg/mL (≈ 45.8 µM)
MIC [6, 14]: 16 µg/mL (≈ 45.8 µM)

CC1=C(C(=O)O)N2C(=O)C(NC(=O)[C@H](N)c3cc4cc(Cl)ccc4s3)C2SC1 (stereo partly drawn) [Ex. 2, D-7-(5-Chloro-2-benzothienyl)glycylamido-3-methyl-3-cephem-4-carboxylic acid]
MIC ([1]; strain V41, read-out: MIC): 32 µg/mL (≈ 73.1 µM)
MIC ([1]; strain X1.1, read-out: MIC): 0.5 µg/mL (≈ 1.14 µM)
MIC ([1]; strain X400, read-out: MIC): 64 µg/mL (≈ 146 µM)
MIC [2, 15]: 1 µg/mL (≈ 2.28 µM)
MIC [2, 12]: 4 µg/mL (≈ 9.13 µM)
MIC [7]: 0.125 µg/mL (≈ 0.285 µM)
MIC [8]: 0.5 µg/mL (≈ 1.14 µM)
MIC ([4]; strain 76, read-out: MIC): 0.5 µg/mL (≈ 1.14 µM)
MIC ([4]; strain C.L., read-out: MIC): 2 µg/mL (≈ 4.57 µM)
MIC [6, 13]: 32 µg/mL (≈ 73.1 µM)
MIC ([9]; strain 219, read-out: MIC): 0.25 µg/mL (≈ 0.571 µM)
MIC ([9]; strain 269, read-out: MIC): 1 µg/mL (≈ 2.28 µM)
MIC ([9]; strain 270, read-out: MIC): 1 µg/mL (≈ 2.28 µM)
MIC ([9]; strain 285, read-out: MIC): 0.5 µg/mL (≈ 1.14 µM)
MIC ([9]; strain 286, read-out: MIC): 0.25 µg/mL (≈ 0.571 µM)
MIC ([9]; strain EPI1, read-out: MIC): 4 µg/mL (≈ 9.13 µM)
MIC ([10]; strain 239, read-out: MIC): 0.5 µg/mL (≈ 1.14 µM)
MIC ([10]; strain S224, read-out: MIC): 0.25 µg/mL (≈ 0.571 µM)
MIC ([10]; strain S225, read-out: MIC): 0.25 µg/mL (≈ 0.571 µM)
MIC ([10]; strain S226, read-out: MIC): 0.5 µg/mL (≈ 1.14 µM)
MIC ([10]; strain S227, read-out: MIC): 0.25 µg/mL (≈ 0.571 µM)
MIC ([10]; strain S228, read-out: MIC): 0.25 µg/mL (≈ 0.571 µM)
MIC ([10]; strain S229, read-out: MIC): 0.5 µg/mL (≈ 1.14 µM)
MIC ([10]; strain S230, read-out: MIC): 0.25 µg/mL (≈ 0.571 µM)
MIC ([10]; strain S231, read-out: MIC): 0.25 µg/mL (≈ 0.571 µM)
MIC ([10]; strain S234, read-out: MIC): 0.5 µg/mL (≈ 1.14 µM)
MIC ([10]; strain S237, read-out: MIC): 0.5 µg/mL (≈ 1.14 µM)
MIC ([10]; strain S238, read-out: MIC): 1 µg/mL (≈ 2.28 µM)
MIC ([11]; strain 76, read-out: MIC): 8 µg/mL (≈ 18.3 µM)
MIC ([11]; strain 1683, read-out: MIC): 1 µg/mL (≈ 2.28 µM)
MIC ([11]; strain C.L., read-out: MIC): 32 µg/mL (≈ 73.1 µM)
MIC ([11]; strain M366): > 64 µg/mL
MIC ([11]; strain STEL): > 64 µg/mL

CC1=C(C(=O)O)N2C(=O)C(NC(=O)[C@H](N)c3cc4c(Cl)cccc4s3)C2SC1 (stereo partly drawn) [Ex. 7A, D-7-(4-chloro-2-benzothienylglycylamido)-3-methyl-3-cephem-4-carboxylic acid]
MIC ([1]; strain V41, read-out: MIC): 2 µg/mL (≈ 4.57 µM)
MIC ([1]; strain X1.1, read-out: MIC): 0.5 µg/mL (≈ 1.14 µM)
MIC ([1]; strain X400, read-out: MIC): 32 µg/mL (≈ 73.1 µM)
MIC [2, 15]: 1 µg/mL (≈ 2.28 µM)
MIC [2, 12]: 2 µg/mL (≈ 4.57 µM)
MIC [7]: 0.25 µg/mL (≈ 0.571 µM)
MIC [8]: 0.5 µg/mL (≈ 1.14 µM)
MIC ([3]; strain 2041, read-out: MIC): 32 µg/mL (≈ 73.1 µM)
MIC ([3]; strain X66, read-out: MIC): 32 µg/mL (≈ 73.1 µM)
MIC ([4]; strain 76, read-out: MIC): 4 µg/mL (≈ 9.13 µM)
MIC ([5]; strain EC14): > 128 µg/mL
MIC ([5]; strain N10): > 128 µg/mL
MIC ([5]; strain TEM): > 128 µg/mL
MIC ([6]; Klebsiella, Table I, agar dilution, strain KAE, read-out: MIC): > 128 µg/mL
MIC [6, 13]: 8 µg/mL (≈ 18.3 µM)
MIC [6, 14]: > 128 µg/mL
MIC ([9]; strain 219, read-out: MIC): 0.5 µg/mL (≈ 1.14 µM)
MIC ([9]; strain 269, read-out: MIC): 1 µg/mL (≈ 2.28 µM)
MIC ([9]; strain 270, read-out: MIC): 2 µg/mL (≈ 4.57 µM)
MIC ([9]; strain 285, read-out: MIC): 1 µg/mL (≈ 2.28 µM)
MIC ([9]; strain 286, read-out: MIC): 0.25 µg/mL (≈ 0.571 µM)
MIC ([9]; strain EPI1, read-out: MIC): 4 µg/mL (≈ 9.13 µM)
MIC ([10]; strain 239, read-out: MIC): 0.5 µg/mL (≈ 1.14 µM)
MIC ([10]; strain S224, read-out: MIC): 0.5 µg/mL (≈ 1.14 µM)
MIC ([10]; strain S225, read-out: MIC): 0.5 µg/mL (≈ 1.14 µM)
MIC ([10]; strain S226, read-out: MIC): 0.5 µg/mL (≈ 1.14 µM)
MIC ([10]; strain S227, read-out: MIC): 0.5 µg/mL (≈ 1.14 µM)
MIC ([10]; strain S228, read-out: MIC): 0.5 µg/mL (≈ 1.14 µM)
MIC ([10]; strain S229, read-out: MIC): 0.5 µg/mL (≈ 1.14 µM)
MIC ([10]; strain S230, read-out: MIC): 0.5 µg/mL (≈ 1.14 µM)
MIC ([10]; strain S231, read-out: MIC): 0.25 µg/mL (≈ 0.571 µM)
MIC ([10]; strain S234, read-out: MIC): 0.5 µg/mL (≈ 1.14 µM)
MIC ([10]; strain S237, read-out: MIC): 0.5 µg/mL (≈ 1.14 µM)
MIC ([10]; strain S238, read-out: MIC): 0.5 µg/mL (≈ 1.14 µM)
MIC ([11]; strain 76, read-out: MIC): 16 µg/mL (≈ 36.5 µM)
MIC ([11]; strain 158, read-out: MIC): 8 µg/mL (≈ 18.3 µM)
MIC ([11]; strain 169, read-out: MIC): 8 µg/mL (≈ 18.3 µM)
MIC ([11]; strain 312, read-out: MIC): 16 µg/mL (≈ 36.5 µM)
MIC ([11]; strain 1683, read-out: MIC): 4 µg/mL (≈ 9.13 µM)
MIC ([11]; strain 1930, read-out: MIC): 16 µg/mL (≈ 36.5 µM)
MIC ([11]; strain 4842, read-out: MIC): 8 µg/mL (≈ 18.3 µM)
MIC ([11]; strain C.L., read-out: MIC): 32 µg/mL (≈ 73.1 µM)
MIC ([11]; strain HESS, read-out: MIC): 32 µg/mL (≈ 73.1 µM)
MIC ([11]; strain M366, read-out: MIC): 32 µg/mL (≈ 73.1 µM)
MIC ([11]; strain R465, read-out: MIC): 16 µg/mL (≈ 36.5 µM)
MIC ([11]; strain STEL, read-out: MIC): 32 µg/mL (≈ 73.1 µM)

COc1c([C@H](N)C(=O)NC2C(=O)N3C(C(=O)O)=C(C)CSC23)sc2ccccc12 (stereo partly drawn) [Ex. 9B, L-7-(3-methoxy-2-benzothienylglycylamido)-3-methyl-3-cephem-4-carboxylic acid]
MIC ([1]; strain S13E): > 128 µg/mL
MIC ([1]; strain V41, read-out: MIC): > 128 µg/mL
MIC ([1]; strain X1.1, read-out: MIC): 16 µg/mL (≈ 36.9 µM)
MIC ([1]; strain X400, read-out: MIC): > 128 µg/mL
MIC [2]: 128 µg/mL (≈ 295 µM)
MIC [2, 15]: 32 µg/mL (≈ 73.8 µM)
MIC [7]: 4 µg/mL (≈ 9.23 µM)
MIC [8]: 32 µg/mL (≈ 73.8 µM)
MIC ([3]; strain 2041): > 128 µg/mL
MIC ([3]; strain X66): > 128 µg/mL
MIC ([4]; strain 76, read-out: MIC): 64 µg/mL (≈ 148 µM)
MIC ([4]; strain C.L.): > 128 µg/mL
MIC ([5]; strain EC14): > 128 µg/mL
MIC ([5]; strain N10): > 128 µg/mL
MIC ([5]; strain TEM): > 128 µg/mL
MIC ([6]; Klebsiella): > 128 µg/mL
MIC ([6]; Table I, agar dilution, strain KAE): > 128 µg/mL
MIC ([6]; Table I, agar dilution, strain X68): > 128 µg/mL
